Measured values published in publication PMC11064632, “Tetracyclic homoisoflavanoid (+)-brazilin: a natural product inhibits c-di-AMP-producing enzyme and Streptococcus mutans biofilms” (Microbiology Spectrum, 2024).
Where a name gives a salt, the structure may show the parent alone.

Columns and labels:
[1] = target: T1, smDAC (S. mutans diadenylate cyclase, CdaA/DacA family) (Streptococcus mutans, UniProt Q8DTC4); experiment: biochemical; design: HPLC quantification of conversion of ATP into c-di-AMP by recombinant smDAC; conditions: read-out: Normalized Enzymatic Inhibition (%)
T1 construct: recombinant smDAC (from 116aa to 265aa)
T1 sequence (Q8DTC4 entry or part of it): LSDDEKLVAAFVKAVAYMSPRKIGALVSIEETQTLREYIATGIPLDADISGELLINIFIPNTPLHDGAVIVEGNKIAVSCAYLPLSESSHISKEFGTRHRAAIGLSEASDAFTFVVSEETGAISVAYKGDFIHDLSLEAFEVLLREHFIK
Method: Eleven “hits” were validated using HPLC to eliminate false positives from the coralyne assay. […] (+)-Brazilin (NSC 8661), showing the greatest inhibitory activity, was further studied in a dose-dependent manner. Representative chromatograms of ATP (100 µM) and c-di-AMP (50 µM) standards were used as references to validate retention times (Fig. 3A and B). […] Representative chromatograms of HPLC reactions treated with dose-dependent concentrations were also obtained (Fig. S5). Excitingly, (+)-brazilin inhibited the conversion of ATP into c-di-AMP in a dose-dependent manner with an IC50 value of 25.1 ± 0.98 µM (Fig. 3H; Table S1). […] HPLC was also used to evaluate and compare bromophenol thiohydantoin, suramin, and tannic acid, all reported tmDisA inhibitors, to brazilin and 10% DMSO negative control.

[2] = target: T1, smDAC (S. mutans diadenylate cyclase, CdaA/DacA family); experiment: intrinsic tyrosine fluorescence quenching (modified Stern-Volmer); supported by HPLC enzyme inhibition, IC50 […], Ki […]; assay type: binding
[3] = system: Nc1ncnc2c1ncn2[C@@H]1O[C@H](COP(=O)(O)OP(=O)(O)OP(=O)(O)O)[C@@H](O)[C@H]1O; experiment: purified protein; conditions: Mn2+ substrate-binding site

Molecule | inhibition at 50 µM [1] [%] | also measured
Oc1ccc2c(c1)OC[C@]1(O)Cc3cc(O)c(O)cc3[C@H]21 [NSC 8661, (+)-brazilin] | 77.8 | inhibition at 100 µM [1]: 87.1%; Kd [2]: 11.9 µM
O=C1NC(=S)N/C1=C\c1cc(Br)cc(Br)c1O [bromophenol thiohydantoin] | 3.7 | 
Cc1ccc(C(=O)Nc2ccc(S(=O)(=O)O)c3cc(S(=O)(=O)O)cc(S(=O)(=O)O)c23)cc1NC(=O)c1cccc(NC(=O)Nc2cccc(C(=O)Nc3cc(C(=O)Nc4ccc(S(=O)(=O)O)c5cc(S(=O)(=O)O)cc(S(=O)(=O)O)c45)ccc3C)c2)c1 [suramin hexasodium salt] | 1.2 | 
O=C(OC[C@H]1O[C@@H](OC(=O)c2cc(O)c(O)c(OC(=O)c3cc(O)c(O)c(O)c3)c2)[C@H](OC(=O)c2cc(O)c(O)c(OC(=O)c3cc(O)c(O)c(O)c3)c2)[C@@H](OC(=O)c2cc(O)c(O)c(OC(=O)c3cc(O)c(O)c(O)c3)c2)[C@@H]1OC(=O)c1cc(O)c(O)c(OC(=O)c2cc(O)c(O)c(O)c2)c1)c1cc(O)c(O)c(OC(=O)c2cc(O)c(O)c(O)c2)c1 [tannic acid] | 22.2 | 
smDAC (S. mutans diadenylate cyclase, CdaA/DacA family) (Streptococcus mutans UA159) |  | Km [3]: 93.0 ± 3.98 µM; Vmax [3]: 5.54 µM/min
